According to patent US20220220100A1 (SOLUTIA CANADA INC., priority 2019, published 2022):

Assay: Photostability: xenon arc weathering of chromophore solutions, LCMS analysis
Assay type: physicochemical
Settings: for Ketone (%) / Minus-2HF (%) / Minus-HF (%) / Sulfone (%) / Chromophore Remaining (%): xenon arc, 82° C. bp; for Ketone (%) / Minus-2HF (%) / Minus-HF (%) / Sulfone (%): linearly interpolated to 0.5 MJ/m2 @ 340 nm; for Chromophore Remaining (%): linearly interpolated to 0.5 MJ/m2 @ 340 nm of exposure energy; for Ratio of chromophore remaining relative to S340: interpolated to 0.5 MJ/m^2 of energy exposure at 340 nm; for Photostability (in words): weathering experiments
From the text: Photostability (resistance to light-induced degradation) may be measured by the amount of time required for the compound, or a material comprising the compound, to degrade to a certain point under light exposure. The light exposure may be constant, or cyclic. The light transmittance or absorbance of the compound, or material comprising the compound, may be determined at both a light state and dark state prior to testing, to determine a contrast ratio. During testing, the contrast ratio may be monitored (periodically or continually), the compound or material may be determined to have failed when the contrast ratio falls outside, or below, a selected range, or when the contrast ratio decreases to a percentage of the original contrast ratio. Photostability may also be expressed with reference to a light source or with reference to a type of light.
Chromophore solutions in Rhodiasolv IRIS were prepared at 1 to 10 wt % loading. Solutions were prepared in a glovebox by charging the chromophore and Rhodiasolv IRIS to a trace-clean vial, and the solution was stirred on a hotplate at 90° C. for 2-24 hours. After cooling, the chromophore solution was injected into glass weathering cells and the fill and vent ports were sealed with a thin disc of Kalrez (FFKM Perfluorinated Elastomer) and secured with a clamp and set-screw. The weathering cells were filled and sealed inside the glove box.
Measurement of Photostability
A. Fabrication of cuvettes. Two holes of 0.8 mm diameter were drilled at opposite ends in a 75×50 mm piece of float glass using a diamond drill bit in a rotary tool. The drilled glass and a matching piece of undrilled glass were then cleaned using hot soapy water, rinsed with deionized water and acetone and then dried with compressed air. A 5 mm wide frame was cut from a sheet of 50 μm thickness EVAL EF-F using a laser engraver. The EVAL frame was placed around the perimeter of one sheet of glass and sandwiched by the second sheet of glass. The glass-EVAL-glass sandwich was secured with tape and heated under vacuum (10 mmHg) for 30 minutes at 170° C. in a vacuum bag. After cooling, a third piece of float glass was PVB laminated to the non-drilled side of the sealed glass cells using Trosifol UV Extra Protect B150 PVB (400 nm UV cut-off).
B. Xenon arc weathering protocol. Devices were exposed to simulated weathering conditions inside a Xe-3-HS xenon arc chamber, manufactured by Q-labs Inc. The samples were weathered according to the following table. The devices were exposed to these conditions continuously, with no dark or spray cycles included.
C. Analysis of weathered chromophore solutions by LCMS. The set-screws, metal clamps and Kalrez plugs were removed from the cuvette to expose the fill port. A 5 mL plastic syringe (NORM-JECT®) equipped with a tip (Precision Tips, 0.010″ RED) was inserted into one fill port and the chromophore solution was withdrawn from the cuvette. The chromophore solution was then injected into a 2 mL amber vial (part number 5182-0716, Agilent Technology) prefilled with 1.5 mL LC-MS grade acetonitrile (HiPerSolbe CHROMANORM Acetonitrile, VWR BDH Chemicals). An aliquot of the acetonitrile solution (2 μL) was injected into the LC-MS system (Agilent Infinity 1290 LC-MS system with diode array detector) through an autosampler mechanism. Species in the injected sample were separated through a reverse phase column (Zorbax SB-C18, 2.1×50 mm, 1.8 μm, operated at 40° C.), using a mixture of acetonitrile (mixed with 1% formic acid v/v ratio), methanol (HiPerSolbe CHROMANORM Methanol, VWR BDH Chemicals) and water (HiPerSolbe CHROMANORM Water, VWR BDH Chemicals) as mobile phase.

Row | SMILES | Formation of the Minus-HF degradation product (in words) | Ketone (%) (3 wt % in Rhodiasolv IRIS) | Minus-2HF (%) (3 wt % in Rhodiasolv IRIS) | Minus-HF (%) (3 wt % in Rhodiasolv IRIS) | Sulfone (%) (3 wt % in Rhodiasolv IRIS) | Chromophore Remaining (%) (3 wt % in Rhodiasolv IRIS) | Ratio of chromophore remaining relative to S340 (3 wt %) | Ketone (%) (10 wt % in Rhodiasolv IRIS) | Minus-2HF (%) (10 wt % in Rhodiasolv IRIS) | Minus-HF (%) (10 wt % in Rhodiasolv IRIS) | Sulfone (%) (10 wt % in Rhodiasolv IRIS) | Chromophore Remaining (%) (10 wt % in Rhodiasolv IRIS) | Ratio of chromophore remaining relative to S340 (10 wt %) | Photostability (in words)
1 | COc1cc2oc(-c3ccc(C(C)(C)C)cc3)c(C3=C(c4cc(-c5ccc(C(C)(C)C)s5)sc4-c4sc(C(C)(C)C)cc4C)C(F)(F)C(F)(F)C3(F)F)c2cc1OC [Chromophore S378, 2-(4-(tert-butyl)phenyl)-3-(2-(5,5″-di-tert-butyl-3-methyl-[2,2′:5′,2″-terthiophen]-3′-yl)-3,3,4,4,5,5-hexafluorocyclopent-1-en-1-yl)-5,6-dimethoxybenzofuran] | does not occur | 0.0% | 0.0% | 0.0% | 7.5% | 92.5% | 1.02 | – | – | – | – | – | – | –
2 | CCOC(=O)CCCOc1cc2oc(-c3ccc(C(C)(C)C)cc3)c(C3=C(c4cc(-c5ccc(C(C)(C)C)s5)sc4-c4sc(C(C)(C)C)cc4C)C(F)(F)C(F)(F)C3(F)F)c2cc1OCCCC(=O)OCC [Chromophore S383, diethyl 4,4′-((2-(4-(tert-butyl)phenyl)-3-(2-(5,5″-di-tert-butyl-3-methyl-[2,2′:5′,2″-terthiophen]-3′-yl)-3,3,4,4,5,5-hexafluorocyclopent-1-en-1-yl)benzofuran-5,6-diyl)bis(oxy))dibutanoate] | does not occur | – | – | – | – | – | – | 0.0% | 0.0% | 0.0% | 0.0% | 100.0% | 1.10 | –
3 | CCOC(=O)CCCOc1cc2oc(-c3ccc(C(C)(C)C)cc3)c(C3=C(c4cc(-c5sc(C(C)(C)C)cc5C)sc4-c4sc(C(C)(C)C)cc4C)C(F)(F)C(F)(F)C3(F)F)c2cc1OCCCC(=O)OCC [Chromophore S384, diethyl 4,4′-((2-(4-(tert-butyl)phenyl)-3-(2-(5,5″-di-tert-butyl-3,3″-dimethyl-[2,2′:5′,2″-terthiophen]-3′-yl)-3,3,4,4,5,5-hexafluorocyclopent-1-en-1-yl)benzofuran-5,6-diyl)bis(oxy))dibutanoate] | does not occur | – | – | – | – | – | – | 0.0% | 0.0% | 0.0% | 1.3% | 97.2% | 1.07 | –
4 | CCOC(=O)CCCOc1cc2oc(-c3ccc(C(C)(C)C)cc3)c(C3=C(c4cc(-c5cc(C(C)(C)C)cs5)sc4-c4cc(C(C)(C)C)cs4)C(F)(F)C(F)(F)C3(F)F)c2cc1OCCCC(=O)OCC [Chromophore S386, diethyl 4,4′-((2-(4-(tert-butyl)phenyl)-3-(2-(4,4″-di-tert-butyl-[2,2′:5′,2″-terthiophen]-3′-yl)-3,3,4,4,5,5-hexafluorocyclopent-1-en-1-yl)benzofuran-5,6-diyl)bis(oxy))dibutanoate] | prevents the Minus-HF product | – | – | – | – | – | – | 0.0% | 0.0% | 0.0% | 0.0% | 98.6% | 1.08 | high photostability
5 | CCOC(=O)CCCOc1cc2oc(-c3ccc(C(C)(C)C)cc3)c(C3=C(c4cc(-c5cc6c(s5)C(C)(C)CCC6(C)C)sc4-c4cc5c(s4)C(C)(C)CCC5(C)C)C(F)(F)C(F)(F)C3(F)F)c2cc1OCCCC(=O)OCC [Chromophore S387, ethyl 4-[(3-{2-[2,5-bis(4,4,7,7-tetramethyl-4,5,6,7-tetrahydro-1-benzothiophen-2-yl)thiophen-3-yl]-3,3,4,4,5,5-hexafluorocyclopent-1-en-1-yl}-2-(4-tert-butylphenyl)-6-(4-ethoxy-4-oxobutoxy)-1-benzofuran-5-yl)oxy]butanoate] | prevents the Minus-HF product | – | – | – | – | – | – | 0.0% | 0.0% | 0.0% | 0.0% | 100.0% | 1.10 | high photostability
6 | COCCCOc1cc2oc(-c3ccc(C(C)(C)C)cc3)c(C3=C(c4cc(-c5cc6c(s5)C(C)(C)CCC6(C)C)sc4-c4cc5c(s4)C(C)(C)CCC5(C)C)C(F)(F)C(F)(F)C3(F)F)c2cc1OCCCOC [Chromophore S388, 3-(2-(2,5-bis(4,4,7,7-tetramethyl-4,5,6,7-tetrahydrobenzo[b]thiophen-2-yl)thiophen-3-yl)-3,3,4,4,5,5-hexafluorocyclopent-1-en-1-yl)-2-(4-(tert-butyl)phenyl)-5,6-bis(3-methoxypropoxy)benzofuran] | prevents the Minus-HF product | – | – | – | – | – | – | 0.2% | 0.0% | 0.0% | 0.4% | 97.7% | 1.07 | high photostability
7 | CC(C)(C)c1ccc(-c2oc3cc(OCCN4CCOC4=O)c(OCCN4CCOC4=O)cc3c2C2=C(c3cc(-c4cc5c(s4)C(C)(C)CCC5(C)C)sc3-c3cc4c(s3)C(C)(C)CCC4(C)C)C(F)(F)C(F)(F)C2(F)F)cc1 [Chromophore S390, 3,3′-(((3-(2-(2,5-bis(4,4,7,7-tetramethyl-4,5,6,7-tetrahydrobenzo[b]thiophen-2-yl)thiophen-3-yl)-3,3,4,4,5,5-hexafluorocyclopent-1-en-1-yl)-2-(4-(tert-butyl)phenyl)benzofuran-5,6-diyl)bis(oxy))bis(ethane-2,1-diyl))bis(oxazolidin-2-one)] | – | – | – | – | – | – | – | 0.0% | 0.0% | 0.0% | 0.0% | 98.8% | 1.08 | high photostability
8 | CC(=O)Oc1cc2oc(-c3ccc(C(C)(C)C)cc3)c(C3=C(c4cc(-c5cc(C(C)(C)C)cs5)sc4-c4cc(C(C)(C)C)cs4)C(F)(F)C(F)(F)C3(F)F)c2cc1OC(C)=O [Chromophore S396, 2-(4-(tert-butyl)phenyl)-3-(2-(4,4″-di-tert-butyl-[2,2′:5′,2″-terthiophen]-3′-yl)-3,3,4,4,5,5-hexafluorocyclopent-1-en-1-yl)benzofuran-5,6-diyl diacetate] | – | 1.0% | 0.0% | 0.0% | 0.0% | 97.9% | 1.07 | – | – | – | – | – | – | high photostability
9 | COc1ccc2oc(-c3ccc(C(C)(C)C)cc3)c(C3=C(c4cc(-c5cc6c(s5)C(C)(C)CCC6(C)C)sc4-c4cc5c(s4)C(C)(C)CCC5(C)C)C(F)(F)C(F)(F)C3(F)F)c2c1 [Chromophore S400] | – | 0.8% | 1.4% | 0.0% | 0.0% | 96.7% | 1.06 | – | – | – | – | – | – | high photostability
